pIC50: −log10 of the molar value.
Tested on: human platelet rich plasma
Experiment: Inhibition of human platelet aggregation, 96-well assay
Format: cell-based
Method: Inhibition of Human Platelet Aggregation
Alternatively to a binding assay which measures a compound's ability to bind to the P2Y12 receptor, the effect on cellular function was also determined. This ability of the compound was evaluated in two platelet aggregation assays: in 96-well plates and with the “Born”-method using single cuvettes.
Whole blood was collected from healthy volunteers using 20 ml syringes containing 2 ml of ACD-A Aqua-Citrat-Dextrose-A, Fresenius). The anticoagulated whole blood was transferred into 15 ml polypropylene conical tubes (10 ml per tube). The tubes were centrifuged for 15 minutes at 150×g at RT without using the centrifuge brake. This procedure leads to a pellet of cellular components and a supernatant of platelet rich plasma (PRP). The PRP layer was collected from each tube and pooled for each donor. To avoid carry over of cellular components following centrifugation, approximately 5 ml of PRP was left in the tube. The platelet concentration was determined using a Coulter Counter.
The 15 ml tubes containing the pellet of cellular components were centrifuged again for 10 minutes at 1940×g. This pelleted out most particulate blood constituents remaining, leaving a layer of Platelet Poor Plasma (PPP). The PPP was collected for each donor. The PRP layer, previously set aside, was diluted with PPP to a final concentration of approximately 3×E8 platelets/ml with the PPP.
The human platelet aggregation assay is performed in 96-well plates using a microtiter plate reader (SpectraMax Plus 384 with SoftMax Pro software from Molecular Devices). In the plate 15 μl of test compound at 10× final concentration in NaCl is mixed with 120 μl fresh PRP and incubated for 5 minutes. Following that incubation period, 15 μl of 40 μM ADP is added to the reaction mix. This addition of ADP is sufficient to induce aggregation in the absence of an inhibitor. The plates are then transferred to the microplate reader and aggregation is measured over 20 minutes. The instrument settings include:
Absorbance at 650 nm, run time 20 minutes with readings in 1-minute intervals and 50 seconds shaking between readings all performed at 37° C.

Row | SMILES | pIC50 (Homo sapiens, Platelet, 20 min) | pIC50 (ADP-induced aggregation, human platelet rich plasma, 96-well plates, AUC of absorbance over 20 minutes)
1 | CCOC(=O)N1CCN(C(=O)[C@H](CCNC(=O)C(F)(F)F)NC(=O)c2cc(OCC(=O)N3CCC[C@H]3C(=O)NC3CCC3)n(-c3ccccc3)n2)CC1 [Example 98, 4-[(S)-2-({5-[2-((S)-2-Cyclobutylcarbamoyl-pyrrolidin-1-yl)-2-oxo-ethoxy]-1-phenyl-1H-pyrazole-3-carbonyl}-amino)-4-(2,2,2-trifluoro-acetylamino)-butyryl]-piperazine-1-carboxylic acid ethyl ester] | 5.74 | 
2 | CCOC(=O)N1CCN(C(=O)[C@H](CCC(=O)O)NC(=O)c2cc(OCC(=O)N3CC(F)(F)C[C@H]3C(=O)NC3CC3)n(-c3ccccc3)n2)CC1 [Example 165, 4-[(S)-4-Carboxy-2-({5-[2-((S)-2-cycloproylcarbamoyl-4,4-difluoro-pyrrolidin-1-yl)-2-oxo-ethoxy]-1-phenyl-1H-pyrazole-3-carbonyl}-amino)-butyryl]-piperazine-1-carboxylic acid ethyl ester] |  | 6.47
3 | CCOC(=O)N1CCN(C(=O)[C@H](CCC(=O)OCC2CCOC2)NC(=O)c2cc(OCC(=O)N3CCC[C@H]3C(=O)NC3CCC3)n(-c3ccccc3)n2)CC1 (stereo partly drawn) [Example 202, 4-[(S)-2-({5-[2-((S)-2-Cyclobutylcarbamoyl-pyrrolidin-1-yl)-2-oxo-ethoxy]-1-phenyl-1H-pyrazole-3-carbonyl}-amino)-4-(tetrahydro-furan-3-ylmethoxycarbonyl)-butyryl]piperazine-1-carboxylic acid ethyl ester] | 6.08 | 
4 | O=C(NCC(=O)N1CCN(C(=O)OCc2ccccc2)CC1)c1cc(OCC(=O)N2CCC[C@H]2C(=O)NC2CCC2)n(-c2ccccc2)n1 [Example 275, 4-[2-({5-[2-((S)-2-Cyclobutylcarbamoyl-pyrrolidin-1-yl)-2-oxo-ethoxy]-1-phenyl-1H-pyrazole-3-carbonyl}-amino)-acetyl]-piperazine-1-carboxylic acid benzyl ester] | 6.31 | 
5 | O=C(NCC(=O)N1CCN(C(=O)[C@H]2C[C@@H]2F)CC1)c1cc(OCC(=O)N2CCC[C@H]2C(=O)NC2CCC2)n(-c2ccccc2)n1 [Example 245, 5-[2-((S)-2-Cyclobutylcarbamoyl-pyrrolidin-1-yl)-2-oxo-ethoxy]-1-phenyl-1H-pyrazole-3-carboxylic acid {2-[4-((1R,2S)-2-fluoro-cyclopropanecarbonyl)-piperazin-1-yl]-2-oxo-ethyl}-amide] | 6.10 | 
6 | CCOCCOC(=O)N1CCN(C(=O)CNC(=O)c2cc(OCC(=O)N3CCC[C@H]3C(=O)NC3CCC3)n(-c3ccccc3)n2)CC1 [Example 257, 4-[2-({5-[2-((S)-2-Cyclobutylcarbamoyl-pyrrolidin-1-yl)-2-oxo-ethoxy]-1-phenyl-1H-pyrazole-3-carbonyl}-amino)-acetyl]-piperazine-1-carboxylic acid 2-ethoxy-ethyl ester] | 6.62 | 
7 | CCOC(=O)N1CCN(C(=O)[C@H](CCC(=O)OCCCOC)NC(=O)c2cc(OCC(=O)N3CCC[C@H]3C(=O)NC3CCC3)n(-c3ccccc3)n2)CC1 [Example 200, 4-[(S)-2-({5-[2-((S)-2-Cyclobutylcarbamoyl-pyrrolidin-1-yl)-2-oxo-ethoxy]-1-phenyl-1H-pyrazole-3-carbonyl}-amino)-4-(3-methoxy-propoxycarbonyl)-butyryl]-piperazine-1-carboxylic acid ethyl ester] | 6.38 | 
8 | CCOC(=O)N1CCN(C(=O)[C@H](CCC(=O)O)NC(=O)c2cc(OCC(=O)N3CCC[C@H]3C(=O)N3CCC(F)(F)CC3)n(-c3ccccc3)n2)CC1 [Example 19, 4-{(S)-4-Carboxy-2-[(5-{2-[(S)-2-(4,4-difluoro-piperidine-1-carbonyl)-pyrrolidin-1-yl]-2-oxo-ethoxy}-1-phenyl-1H-pyrazole-3-carbonyl)-amino]-butyryl}-piperazine-1-carboxylic acid ethyl ester] | 6.68 | 

Reference: patent US8426420B2, “Heterocyclic pyrazole-carboxamidesas P2Y12 antagonists” (Sanofi, priority 2007, dated 2013)
